Data taken from EP0369035A1, “AGENT FOR TREATING PANCREATITIS OR THE LIKE” (priority 1988, dated 1989).
Like-named read-outs stand apart in the source and are kept apart here.

Legend:
human plasmin [1] = biological target: T1, human plasmin (Homo sapiens, UniProt P00747); experiment: Anti-plasmin activity: inhibition of S-2251 degradation; type: biochemical
T1 construct: 50 µl of 0.2 casein units/ml of human plasmin
Method: ii) Assay method of inhibition of S-2251 degradation
The test substance was dissolved in a 0.05 M Tris-HC1 (pH7.4) buffer to make a total volume of 400 µl, and 50 µl of a 3 mM S-2251 solution was added to the solution. The mixture was incubated at 37°C for 5 minutes in an incubator, and after the addition of 50 µl of 0.2 casein units/ml of human plasmin, and incubation at 37°C for 4 minutes, the reaction was terminated by an addition of 50 µl of 50% acetic acid.

human plasmin [2] = biological target: T1, human plasmin; experiment: Anti-plasmin activity: inhibition of fibrinolysis (fibrin clot lysis time); type: biochemical
human plasma kallikrein = biological target: T2, human plasma kallikrein (Homo sapiens, UniProt P03952); experiment: Anti-plasma kallikrein activity: inhibition of S-2302 degradation; type: biochemical
T2 construct: 50 µl of 0.12 units/ml human plasma kallikrein solution
Method: 2) Assay of anti-plasma kallikrein activity Assay method of inhibition of S-2302 degradation
(§1) The test substance was dissolved in a 0.05 M Tris-HC1 (pH 7.8) buffer to make a total volume of 400 µl, and 50 µl of a 2 mM S-2302 solution was added to the solution. After incubation at 37°C for 5 minutes in an incubator, an addition of 50 µl of 0.12 units/ml human plasma kallikrein solution, and incubation at 37°C for 5 minutes, the reaction was terminated by an addition of 50 µl of 50% acetic acid.

human urokinase = human urokinase (Homo sapiens, UniProt P00749); experiment: Anti-urokinase activity: inhibition of S-2444 degradation; type: biochemical; conditions: substrate S-2444, 37°C, pH 8.8; read-out: Urokinase S-2444 (I50)
Method: 3) Assay of anti-urokinase activity Assay method of inhibition of S-2444 degradation
as §1, with “8.8)” for “7.8)”, “1” for “2”, “S-2444” for “S-2302”, “mixture.” for “solution.”, “500” for “0.12”, “urokinase” for “plasma kallikrein”

[3] = test system: experimental pancreatitis; experiment: Effect on experimental pancreatitis (sodium taurochorate + trypsin into the common bile duct), survival ratio; type: in vivo, SD-rats; design: Effect on experimental pancreatitis (100 mg/kg p.o.) After 24 hours / Effect on experimental pancreatitis (100 mg/kg p.o.) After 48 hours / Effect of existing control drug on experimental pancreatitis After 24 hours: unit not given here; conditions: rat; for Effect on experimental pancreatitis Survival ratio(%) After 24 hours / Effect on experimental pancreatitis Survival ratio(%) After 48 hours: 80 μg/kg/min. x 80 min. continuous infusion; for Effect on experimental pancreatitis (100 mg/kg p.o.) After 24 hours / Effect on experimental pancreatitis (100 mg/kg p.o.) After 48 hours / Effect of existing control drug on experimental pancreatitis After 24 hours: survival ratio; for Effect on experimental pancreatitis (100 mg/kg p.o.) After 24 hours / Effect on experimental pancreatitis (100 mg/kg p.o.) After 48 hours: 100 mg/kg p.o. 30 minutes before pancreatitis
Description: [II] Effect on experimental pancreatitis
SD-rats, body weight of about 200 g were, starved overnight, and 10 to 24 animals were used in one group. Sodium pentobarbital was intraperioneally administered to anesthetize each rat, and then a cannula was inserted to the femoral vein for the administration of the test substance. After abdominal surgery, the bile duct was blocked at a part thereof proximate to the liver, by a clip, a polyethylene tube was inserted to the common bile duct at a part thereof most proximate to the duodenum, and 0.1 ml of solution containing 2 mg sodium taurochorate and 1000 U trypsin dissolved in physiological saline was injected retrogrodely. After removal of the clip and tube, the common bile duct was ligated and the abdomen was closed. Note, the test substance was dissolved in an injective 5% glucose solution, and in the case of a continuous infusion, the solution was administered over 80 minutes starting from 10 minutes before the generation of pancreatitis. In the case of oral administration, the test substance was administered through an oral catheter 30 minutes before the generation of pancreatitis. After 24 hours and 48 hours from the generation of pancreatitis, the survival ratio of the animals was calculated and compared with a control group.

experimental DIC = experiment: Effect on experimental DIC and MOF (endotoxin-induced); type: in vivo, SD-rats; conditions: rat, 4 hours after endotoxin 10 mg/kg; for CPK: Table 5-1
Method: [III] Effect on experimental DIC
SD-rats, body weight of about 200 g, were starved overnight. Sodium pentobarbital was intraperioneally administered to anesthetize a rat, and then a cannula was inserted to the femoral vein, and the test substance dissolved in an injective 5% glucose solution was continually infused. Then, 10 minutes from the start of the injection, endotoxin (E. coli 0127:B8, Difco, U.S.) dissolved in physiological saline was injected through the tail vein to an amount of 10 mg/kg body weight, and 4 hours from the administration of endotoxin, the abdomen was opened, blood was obtained from the abdominal aorta, and platelets (Plt), fibrinogen (Fbg), fibrin degradation product (FDP), glutamic oxaloacetic transamirase (GOT), creatinine phosphokinase (CPK), and blood urin nitrogen (BUN) were measured.

experimental shock = experiment: Effect on experimental shock (endotoxin-induced), survival ratio; type: in vivo, ICR-mice; conditions: dose of 30 mg/kg intraperitoneally 15 minutes before endotoxin 40 mg/kg, mouse
Method: [IV] Effect on experimental shock
ICR-mice, body weight of about 25 g, were starved overnight. The test substance was dissolved in an injective 5% glucose solution and intraperioneally administered, and 15 minutes later, endotoxin (E. coli 0127:B8, Difco, U.S.) dissolved in a physiological saline was intraperioneally administered to an amount of 40 mg/kg body weight.

in vivo = conditions: mouse, intravenous, ICR male mice, up-and-down method, read-out: Acute toxicity (LD50)
Method: ICR male mice 5 to 10 weeks old were used. The test substance was dissolved in a 5% dimethylsulfoxide aqueous solution, and the solution was intravenously administered in an amount of 0.1 to 0.2 ml/10 g body weight. An LD50 value was calculated by up-and-down method.

[4] = Measurement of half life in blood; type: in vivo; conditions: rat, iv, administered to the tail vein, SD-rats, plasma, HPLC
Method: [VI] Measurement of half life in blood
SD-rats 6 to 7 weeks old were used. The test substance was dissolved in an injective 5% glucose solution and administered to the tail vein. After the administration, blood samples were periodically obtained from the great vein and placed into heparinized test tubes. Plasma was separated by centrifugation and the test substance was extracted with ethyl acetate. After removal of the solvent, the residue was dissolved in 200 µl of methanol, and analyzed by high performance liquid chromatography. From the change of the concentration of the test substance in blood with time, a half life thereof in blood was calculated.

bovine factor Xa = biological target: T3, bovine factor Xa (Bos taurus, UniProt P00743); experiment: Anti-FXa activity: inhibition of S-2222 degradation; type: biochemical
T3 construct: 0.05 ml of 0.3 vial/ml bovine factor Xa
Method: 4) Assay of anti-FXa activity Assay method of inhibition of S-2222 degradation
To 0.4 ml of the test substance dissolved in a 0.05 M Tris-HC1 (pH 8.3) buffer is added 0.05 ml of 3 mM S-2222 solution, and after incubation at 37°C for about 4 minutes, an addition of 0.05 ml of 0.3 vial/ml bovine factor Xa, and a reaction at 37°C for 4 minutes, the - reaction was terminated by adding 0.05 ml of 50% acetic acid.

[5] = substrate S-2251, 37°C, pH7.4, read-out: Plasmin S-2251 (I50)
[6] = concentration giving a fibrin clot lysis time twice that of control, 37°C, pH7.4, read-out: Plasmin Fibrin (I50)
[7] = substrate S-2302, 37°C, pH 7.8, read-out: Plasma kallikrein S-2302 (I50)
[8] = substrate S-2222, 37°C, pH 8.3, read-out: FXa S-2222 (I50)

T2 sequence (P03952 391-638 limits assumed): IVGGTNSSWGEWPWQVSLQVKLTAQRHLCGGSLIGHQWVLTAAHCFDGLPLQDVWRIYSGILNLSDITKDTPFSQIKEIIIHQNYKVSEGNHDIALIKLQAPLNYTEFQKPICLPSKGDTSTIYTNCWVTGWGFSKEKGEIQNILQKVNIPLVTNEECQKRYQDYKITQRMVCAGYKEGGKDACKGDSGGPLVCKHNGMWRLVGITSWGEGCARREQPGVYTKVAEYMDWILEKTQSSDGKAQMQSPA
T2 sequence (P03952 20-390 partner limits assumed): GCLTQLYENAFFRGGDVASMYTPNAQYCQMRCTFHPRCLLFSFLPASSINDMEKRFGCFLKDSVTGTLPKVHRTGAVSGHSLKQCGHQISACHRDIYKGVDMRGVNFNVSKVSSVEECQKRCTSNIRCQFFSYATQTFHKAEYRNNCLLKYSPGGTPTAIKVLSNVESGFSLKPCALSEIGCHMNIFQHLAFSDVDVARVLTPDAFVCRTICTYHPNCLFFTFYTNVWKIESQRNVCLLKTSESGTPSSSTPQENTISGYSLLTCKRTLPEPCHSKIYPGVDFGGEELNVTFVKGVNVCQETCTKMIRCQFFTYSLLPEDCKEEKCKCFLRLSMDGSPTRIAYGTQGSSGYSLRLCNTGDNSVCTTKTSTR
T3 sequence (P00743 234-492 limits assumed): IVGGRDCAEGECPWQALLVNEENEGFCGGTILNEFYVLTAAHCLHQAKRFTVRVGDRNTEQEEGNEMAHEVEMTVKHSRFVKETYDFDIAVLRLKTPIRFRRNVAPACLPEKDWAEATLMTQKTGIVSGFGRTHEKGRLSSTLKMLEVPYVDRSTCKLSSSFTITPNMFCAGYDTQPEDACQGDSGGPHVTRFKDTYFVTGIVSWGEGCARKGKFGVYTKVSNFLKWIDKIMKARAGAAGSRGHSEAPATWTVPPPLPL
T3 sequence (P00743 41-180 partner limits assumed): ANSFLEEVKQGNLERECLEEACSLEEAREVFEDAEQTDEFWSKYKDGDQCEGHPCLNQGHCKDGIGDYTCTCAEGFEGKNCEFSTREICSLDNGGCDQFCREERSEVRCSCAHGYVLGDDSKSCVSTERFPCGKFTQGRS
T1 sequence (P00747 581-810 limits assumed): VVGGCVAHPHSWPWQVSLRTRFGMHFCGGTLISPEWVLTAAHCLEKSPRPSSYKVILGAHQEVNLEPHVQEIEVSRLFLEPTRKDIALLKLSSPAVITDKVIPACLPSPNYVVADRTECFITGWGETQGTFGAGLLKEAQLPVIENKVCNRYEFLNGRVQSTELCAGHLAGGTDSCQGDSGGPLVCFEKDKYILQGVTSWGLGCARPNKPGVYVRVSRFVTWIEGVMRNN
T1 sequence (P00747 97-580 partner limits assumed): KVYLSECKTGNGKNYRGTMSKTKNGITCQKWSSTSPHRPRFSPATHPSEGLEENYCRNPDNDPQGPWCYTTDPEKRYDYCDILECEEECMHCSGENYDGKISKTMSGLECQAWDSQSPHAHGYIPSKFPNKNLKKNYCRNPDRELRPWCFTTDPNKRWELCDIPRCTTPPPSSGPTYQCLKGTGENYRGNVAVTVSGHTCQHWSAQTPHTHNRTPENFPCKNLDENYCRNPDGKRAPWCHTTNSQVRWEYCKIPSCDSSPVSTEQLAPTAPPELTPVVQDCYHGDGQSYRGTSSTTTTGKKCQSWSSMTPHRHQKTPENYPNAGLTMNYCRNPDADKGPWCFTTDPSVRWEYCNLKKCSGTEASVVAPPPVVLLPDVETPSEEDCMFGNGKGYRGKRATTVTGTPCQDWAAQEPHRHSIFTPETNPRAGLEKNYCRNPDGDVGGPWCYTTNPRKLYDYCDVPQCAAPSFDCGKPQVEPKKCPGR

Row | SMILES | IC50 (human plasmin [1]; [5]) [µM] | IC50 (human plasmin [2]; [6]) [µM] | IC50 (human plasma kallikrein; [7]) [µM] | IC50 (human urokinase) [µM] | Effect on experimental pancreatitis Survival ratio(%) After 24 hours [3] [%] | Effect on experimental pancreatitis Survival ratio(%) After 48 hours [3] [%] | BUN (experimental DIC; Dose 10 μg/kg/min infusion) [mg/dL] | FDP (experimental DIC; Dose 10 μg/kg/min infusion) [µg/mL] | Fbg (experimental DIC; Dose 10 μg/kg/min infusion) [mg/dL] | GOT (experimental DIC; Dose 10 μg/kg/min infusion) [U/ml] | Plat (experimental DIC; Dose 10 μg/kg/min infusion) | Effect on experimental shock (Survival ratio (%) after 24 hours) (experimental shock) [%] | LD50 (in vivo) [mg/kg] | half-life [4] [min] | IC50 (bovine factor Xa; [8]) [µM] | Effect on experimental pancreatitis (100 mg/kg p.o.) After 24 hours [3] | Effect on experimental pancreatitis (100 mg/kg p.o.) After 48 hours [3] | also measured
1 | NC[C@H]1CC[C@H](C(=O)N[C@@H](Cc2ccc(OCc3ccccc3)cc2)C(=O)Nc2cccnc2)CC1 [Compound 1] | 6.1 | 2.9 | 1.7 | 45 | 55.5 | 29.1 | 28 ± 3 | 16 to 32 | 146 ± 7 | 299 ± 63 | 65 ± 6 x 10^4/μl | 82 | 70 | 15.3 | – | – | – | –
2 | CC(=O)c1ccc(NC(=O)[C@H](Cc2ccc(OCc3cccc(Cl)c3)cc2)NC(=O)[C@H]2CC[C@H](CN)CC2)cc1 [Compound 3] | 0.8 | 0.1 | 0.38 | 40 | – | – | 40 ± 5 | 8 to 64 | 160 ± 13 | 133 ± 4 | 78 ± 7 x 10^4/μl | 67 | > 100 | – | 35 | – | – | CPK (experimental DIC; Dose 10 μg/kg/min infusion): 14 ± 2 U/1
3 | CC(=O)c1ccc(NC(=O)[C@H](Cc2ccc(OCc3ccccn3)cc2)NC(=O)[C@H]2CC[C@H](CN)CC2)cc1 [Compound 6] | 2.7 | 1.4 | 2 | 75 | 62.5 | 54.1 | 26 ± 2 | 8 to 32 | 179 ± 15 | 196 ± 28 | 95 ± 14 x 10^4/μl | 70 | 85 | 12.2 | 160 | 66.7 | 53.3 | BUN (experimental DIC; Dose 1 μg/kg/min infusion): 36 ± 2 mg/dL; FDP (experimental DIC; Dose 1 μg/kg/min infusion): 32 to 65 µg/mL; Fbg (experimental DIC; Dose 1 μg/kg/min infusion): 140 ± 18 mg/dL; GOT (experimental DIC; Dose 1 μg/kg/min infusion): 217 ± 29 U/ml; Plat (experimental DIC; Dose 1 μg/kg/min infusion): 68 ± 11 x 10^4/μl; CPK (experimental DIC; Dose 10 μg/kg/min infusion): 22 ± 6 U/1
4 | NC[C@H]1CC[C@H](C(=O)N[C@@H](Cc2ccc(OCc3ccccc3)cc2)C(=O)Nc2ccc(CC(=O)O)cc2)CC1 [Compound 8] | 25 | 9.2 | 3 | 260 | 58.3 | 58.3 | – | – | – | – | – | – | > 100 | 10.6 | 290 | 58.3 | 33.3 | –
5 | NC[C@H]1CC[C@H](C(=O)N[C@@H](Cc2ccc([N+](=O)[O-])cc2)C(=O)Nc2ccc(C(=O)c3ccccc3)cc2)CC1 [Compound 10] | 7 | 1.8 | 2.7 | 5 | 50.0 | 33.3 | 32 ± 2 | 16 to 128 | 109 ± 30 | 302 ± 29 | 68 ± 8 x 10^4/μl | 79 | 85 | 6.8 | – | 66.7 | 53.3 | BUN (experimental DIC; Dose 100 μg/kg/min infusion): 30 ± 2 mg/dL; FDP (experimental DIC; Dose 100 μg/kg/min infusion): 16 to 128 µg/mL; Fbg (experimental DIC; Dose 100 μg/kg/min infusion): 128 ± 32 mg/dL; GOT (experimental DIC; Dose 100 μg/kg/min infusion): 258 ± 60 U/ml; Plat (experimental DIC; Dose 100 μg/kg/min infusion): 66 ± 10 x 10^4/μl; CPK (experimental DIC; Dose 100 μg/kg/min infusion): 20 ± 5 U/1
6 | NCC1CCC(C(=O)NC(Cc2ccc(OCc3ccccn3)cc2)C(=O)Nc2ccc(C(=O)O)cc2)CC1 (stereo not drawn) [Compound 20] | 65 | 32 | 1.4 | – | 58.3 | 41.7 | – | – | – | – | – | – | > 100 | 14 | 700 | 58.3 | 41.7 | –
7 | CCOC(=O)c1ccc(OC(=O)CCCCCNC(=N)N)cc1 [FOY, gabexate mesilate, reference compound] | – | – | – | 1.3 | – | – | – | – | – | – | – | – | 248 | – | – | – | – | IC50 (human plasmin [1]): 3.4 µM; IC50 (human plasmin [2]): 3 µM; IC50 (human plasma kallikrein): 1.3 µM; IC50 (bovine factor Xa): 43 µM; Effect of existing control drug on experimental pancreatitis After 24 hours ([3]; 250 μg/kg/min x 80 min): 16.6; Effect of existing control drug on experimental pancreatitis After 24 hours ([3]; 1000 μg/kg/min x 80 min): 42.0; half-life ([4]; in vivo): 0.4 min
